IC50 data for 40 compounds are collected here from patent US10124004B2, “Pyrido[3,4-d]pyrimidine derivative and pharmaceutically acceptable salt thereof” (Teijin Pharma Limited, priority 2015, dated 2018).

In one assay the target is T1, CDK4/cyclin D3 (Homo sapiens, UniProt P11802).
T1 construct: purchased Carna Biosciences, Inc. QS S Assist CDK4/Cyclin D3_FP Kit
The experiment in a line: Human CDK4/cyclin D3 inhibitory activity (QS S Assist CDK4/Cyclin D3_FP Kit, IMAP fluorescence polarization). It counts as biochemical. Put shortly: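 IMAP fluorescence-polarization kinase assay with kit ATP/substrate/metal mix and 12.5 to 25 ng/well enzyme in 20 mM HEPES pH 7.4, 0.01% Tween20, 2 mM DTT. Reaction ran 45 min at room temperature, then binding reagent was added for 30 min in the dark. IC50 was taken from dose-response fits of percent inhibition.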

The target in the next assay is T2, CDK2/cyclin A2 (Homo sapiens, UniProt P24941).
T2 construct: purchased Carna Biosciences, Inc. QS S Assist CDK2/Cyclin A2_FP Kit
The experiment in a line: Human CDK2/cyclin A2 inhibitory activity (QS S Assist CDK2/Cyclin A2_FP Kit, IMAP fluorescence polarization). It counts as biochemical. Put shortly:
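Kinase activity read as fluorescence polarization (485/535 nm) after phosphorylated fluorescent substrate binds IMAP reagent (30 min, RT, dark). Enzyme (2.5 ng/well) reacted 60 min at RT with ATP/substrate/metal in HEPES pH 7.4 buffer with Tween 20 and DTT; no-enzyme wells define 0% activity; IC50 by curve fit.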
For orientation: Polarisation of emitted light reports the rotation of a fluorescent probe.

[1] abbreviates: Human CDK4/cyclin D3 inhibitory activity, read-out: CDK4 Activity symbol.
[2] abbreviates: Human CDK2/cyclin A2 inhibitory activity, read-out: CDK2 Activity symbol.
Setting [3] is: 50% inhibitory concentration against CDK4/cyclin D3, given as class symbol.
[4] abbreviates: 50% inhibitory concentration against CDK2/cyclin A2, given as class symbol.

Molecules are shown by their SMILES. Like-named read-outs stand apart in the source and are kept apart here.

T1 sequence (P11802 whole entry): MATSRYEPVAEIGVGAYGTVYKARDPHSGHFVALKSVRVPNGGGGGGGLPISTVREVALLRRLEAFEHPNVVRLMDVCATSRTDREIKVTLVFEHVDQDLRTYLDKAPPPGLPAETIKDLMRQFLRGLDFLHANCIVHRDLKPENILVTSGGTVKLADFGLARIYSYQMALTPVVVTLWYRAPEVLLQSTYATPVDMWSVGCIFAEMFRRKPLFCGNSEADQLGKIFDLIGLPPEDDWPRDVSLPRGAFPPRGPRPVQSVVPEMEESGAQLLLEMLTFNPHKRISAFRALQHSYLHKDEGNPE
T1 sequence (P30281 whole entry partner): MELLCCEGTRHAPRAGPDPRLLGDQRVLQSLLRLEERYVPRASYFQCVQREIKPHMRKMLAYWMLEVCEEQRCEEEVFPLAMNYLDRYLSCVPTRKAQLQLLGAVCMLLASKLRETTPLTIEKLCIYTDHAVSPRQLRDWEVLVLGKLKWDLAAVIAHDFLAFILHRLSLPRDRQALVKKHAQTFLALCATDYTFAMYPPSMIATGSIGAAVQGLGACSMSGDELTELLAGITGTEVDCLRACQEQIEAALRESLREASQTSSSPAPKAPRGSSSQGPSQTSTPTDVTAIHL

With `CC(C)Nc1nc(C(F)F)cc2cnc(Nc3ccc(N4CCNCC4)c(F)n3)nc12` [Compound 67], the IC50 at CDK4/cyclin D3 (setting [1]) was less than 10 nM; on CDK2/cyclin A2 (setting [2]) it was 10 to 100 nM.
Consider `CC(=O)c1cc2cnc(Nc3ccc(N4CCNCC4)cn3)nc2c(NCC2CC2)n1` [Compound 1052], for which the values for the IC50 against CDK4/cyclin D3 (setting [3]) and against CDK2/cyclin A2 (setting [4]) were 10 to 100 nM and not below 100 nM, respectively.
As to `CCCCNc1nc([C@@H](C)OC)cc2cnc(Nc3ccc(N4CCNCC4)nn3)nc12` [Compound 855], the IC50 is less than 10 nM at CDK4/cyclin D3 (setting [3]) and not below 100 nM on CDK2/cyclin A2 (setting [4]).
The matching figures for `CCNc1nc([C@@H](C)OC)cc2cnc(Nc3ccc4c(n3)CCN(CCO)C4)nc12` [Compound 1120]: 10 to 100 nM and not below 100 nM.
The matching figures for `C[C@@H](O)c1cc2cnc(Nc3ccc(CN4CCCC(O)C4)cn3)nc2c(N[C@H]2CC[C@H](O)CC2)n1` (some centres unmarked) [Compound 1086]: less than 10 nM and not below 100 nM.
In the case of `COC(C)c1cc2cnc(Nc3ccc(N4CCNCC4)cn3)nc2c(NC(C)C)n1` (centres unmarked) [Compound 37], the IC50 at CDK4/cyclin D3 (setting [1]) was less than 10 nM; on CDK2/cyclin A2 (setting [2]), not below 100 nM.
Regarding `C[C@@H](O)c1cc2cnc(Nc3ccc(CN4CCC(CO)CC4)cn3)nc2c(N[C@H]2CCCOC2)n1` [Compound 1156], the IC50 on CDK4/cyclin D3 (setting [3]) is less than 10 nM; on CDK2/cyclin A2 (setting [4]), not below 100 nM.
Take `CC(C)Nc1nc(C(F)F)cc2cnc(Nc3ccc(C4CCC(O)CC4)cn3)nc12` (centres unmarked) [Compound 107]: the IC50 at CDK4/cyclin D3 (setting [1]) is 10 to 100 nM; on CDK2/cyclin A2 (setting [2]), not below 100 nM.
With `CC(C)Nc1nc([C@@H](C)O)cc2cnc(Nc3ccc(NC(=O)C4CCNCC4)cn3)nc12` [Compound 768], the IC50 was less than 10 nM against CDK4/cyclin D3 (setting [3]) and not below 100 nM on CDK2/cyclin A2 (setting [4]).
For `CC(C)Nc1nc([C@@H](C)O)cc2cnc(Nc3ccc(CN4CCC(O)CC4)cn3)nc12` [Compound 1019] the same measures were less than 10 nM and not below 100 nM.
For `CC(C)Nc1nc(C(C)O)cc2cnc(Nc3ccc(C4COCCN4)cn3)nc12` (single isomer, unassigned) [Compound 865], the IC50 is less than 10 nM against CDK4/cyclin D3 (setting [3]) and not below 100 nM against CDK2/cyclin A2 (setting [4]).
Consider `CC(C)Nc1nc([C@@H](C)F)cc2cnc(Nc3ccc(N4CCNCC4)nn3)nc12` [Compound 718], for which the results for the IC50 at CDK4/cyclin D3 (setting [3]) and against CDK2/cyclin A2 (setting [4]) were 10 to 100 nM and not below 100 nM, respectively.
As for `CC(C)Nc1nc([C@@H](C)O)cc2cnc(Nc3ccc(N4CCC(N(C)C)CC4)nn3)nc12` [Compound 491], the IC50 on CDK4/cyclin D3 (setting [1]) was less than 10 nM; on CDK2/cyclin A2 (setting [2]), not below 100 nM.
Regarding `CC(C)Nc1nc(C(F)F)cc2cnc(Nc3ccc(N4CCC(O)CC4)nn3)nc12` [Compound 171], the figures for the IC50 on CDK4/cyclin D3 (setting [1]) and at CDK2/cyclin A2 (setting [2]) were less than 10 nM and 10 to 100 nM, respectively.
Take `CCNc1nc([C@@H](C)O)cc2cnc(Nc3ccc(N4CCNCC4=O)cn3)nc12` [Compound 812]: the IC50 on CDK4/cyclin D3 (setting [3]) was 10 to 100 nM; against CDK2/cyclin A2 (setting [4]) it was not below 100 nM.
With `CC(C)Nc1nc([C@@H](C)O)cc2cnc(Nc3ccc(N4CCN(C)CC4)nn3)nc12` [Compound 532], the IC50 at CDK4/cyclin D3 (setting [1]) was less than 10 nM; on CDK2/cyclin A2 (setting [2]), not below 100 nM.
For `CC(C)Nc1nc(C(F)F)cc2cnc(Nc3ccc(CN4CCCCC4)cn3)nc12` [Compound 177] the same measures were less than 10 nM and 10 to 100 nM.
With `CCCNc1nc([C@@H](C)OC)cc2cnc(Nc3ccc4c(n3)CCN(C(=O)OCCN(C)C)C4)nc12` [Compound 1133], the IC50 at CDK4/cyclin D3 (setting [3]) is less than 10 nM; against CDK2/cyclin A2 (setting [4]), not below 100 nM.
Take `CO[C@H](C)c1cc2cnc(Nc3ccc(CN4CCc5nc(C)[nH]c5C4)cn3)nc2c(NC(C)C)n1` [Compound 277]: the IC50 on CDK4/cyclin D3 (setting [1]) and at CDK2/cyclin A2 (setting [2]) was not below 100 nM in each case.
Turning to `CO[C@H](C)c1cc2cnc(Nc3ccc(C4CCNCC4)nn3)nc2c(NC(C)C)n1` [Compound 311], the results for the IC50 on CDK4/cyclin D3 (setting [1]) and on CDK2/cyclin A2 (setting [2]) were less than 10 nM and not below 100 nM, respectively.
As for `CCCCNc1nc([C@@H](C)OC)cc2cnc(Nc3ccc(CN4CCN(CCO)CC4)cn3)nc12` [Compound 853], the IC50 against CDK4/cyclin D3 (setting [3]) was less than 10 nM; at CDK2/cyclin A2 (setting [4]), not below 100 nM.
The matching figures for `CCNc1nc([C@@H](C)O)cc2cnc(Nc3ccc(CN4CCC(O)CC4)cn3)nc12` [Compound 1060]: less than 10 nM and not below 100 nM.
As for `CO[C@H](C)c1cc2cnc(Nc3ccc(CN4CCC(C(C)(C)O)CC4)cn3)nc2c(NC(C)C)n1` [Compound 200], the IC50 was less than 10 nM on CDK4/cyclin D3 (setting [1]) and not below 100 nM at CDK2/cyclin A2 (setting [2]).
Consider `CC1(c2cc3cnc(Nc4ccc5c(n4)CCN(C(=O)CO)C5)nc3c(N[C@H]3CCCOC3)n2)COC1` [Compound 1115], for which the IC50 against CDK4/cyclin D3 (setting [3]) was less than 10 nM; at CDK2/cyclin A2 (setting [4]) it was not below 100 nM.
As to `CC(C)Nc1nc(C(F)F)cc2cnc(Nc3ccc(CN4CCS(=O)(=O)CC4)cn3)nc12` [Compound 113], the IC50 is less than 10 nM on CDK4/cyclin D3 (setting [1]) and not below 100 nM at CDK2/cyclin A2 (setting [2]).
Regarding `CO[C@H](C)c1cc2cnc(Nc3ccc(N4CCNCC4)nn3)nc2c(N[C@H]2CCOC2)n1` [Compound 306], the IC50 on CDK4/cyclin D3 (setting [1]) is 10 to 100 nM; on CDK2/cyclin A2 (setting [2]), not below 100 nM.
Turning to `CC(C)Nc1nc(C(F)F)cc2cnc(Nc3ccc(C(=O)NCCO)cn3)nc12` [Compound 109], the IC50 at CDK4/cyclin D3 (setting [1]) is 10 to 100 nM; on CDK2/cyclin A2 (setting [2]), not below 100 nM.
The matching figures for `COCC(C)(C)Nc1nc([C@@H](C)O)cc2cnc(Nc3ccc(CN4CCOCC4)cn3)nc12` [Compound 180]: 10 to 100 nM and not below 100 nM.
Consider `C[C@@H](O)c1cc2cnc(Nc3ccc(N4CCNCC4=O)cn3)nc2c(NC2(C)CC2)n1` [Compound 1173], for which the IC50 on CDK4/cyclin D3 (setting [3]) was less than 10 nM; on CDK2/cyclin A2 (setting [4]) it was not below 100 nM.
For `CO[C@H](C)c1cc2cnc(Nc3ccc(CN4CCN(CC(=O)N(C)C)CC4)cn3)nc2c(NC(C)C)n1` [Compound 972] the same measures were less than 10 nM and not below 100 nM.
The matching figures for `CNC1CCCC1Oc1ccc(Nc2ncc3cc(C(C)O)nc(NC(C)C)c3n2)nc1` (centres unmarked) [Compound 799]: less than 10 nM and not below 100 nM.
As for `C[C@@H](O)c1cc2cnc(Nc3ccc(N4CCNCC4=O)cn3)nc2c(NCC(F)(F)F)n1` [Compound 1174], the IC50 was less than 10 nM against CDK4/cyclin D3 (setting [3]) and not below 100 nM at CDK2/cyclin A2 (setting [4]).
For `C[C@@H](O)c1cc2cnc(Nc3ccc(OCC4CCN4)cn3)nc2c(N[C@H]2CCCOC2)n1` (some centres unmarked) [Compound 802] the same measures were less than 10 nM and not below 100 nM.
Regarding `CO[C@H](C)c1cc2cnc(Nc3ccc(N4CCN(C(=O)C5CCOC5)CC4)nn3)nc2c(NC(C)C)n1` (some centres unmarked) [Compound 1177], the values for the IC50 on CDK4/cyclin D3 (setting [3]) and against CDK2/cyclin A2 (setting [4]) were less than 10 nM and not below 100 nM, respectively.
For `CCNc1nc([C@@H](C)O)cc2cnc(Nc3ccc(CN4CCN(CC(C)(C)O)CC4)cn3)nc12` [Compound 1073] the same measures were less than 10 nM and not below 100 nM.
For `CCCNc1nc(C2CCOC2)cc2cnc(Nc3ccc4c(n3)CCNC4)nc12` (centres unmarked) [Compound 948] the same measures were less than 10 nM and not below 100 nM.
With `CC(C)CN1CCN(c2ccc(Nc3ncc4cc([C@@H](C)O)nc(NC(C)C)c4n3)nc2)C(=O)C1` [Compound 596], the IC50 on CDK4/cyclin D3 (setting [1]) is less than 10 nM; at CDK2/cyclin A2 (setting [2]) it was not below 100 nM.
On to `CO[C@H](C)c1cc2cnc(Nc3ccc(CN4CCNCC4)cn3)nc2c(NCC2CCOC2)n1` (some centres unmarked) [Compound 320], for which the IC50 at CDK4/cyclin D3 (setting [1]) is less than 10 nM; at CDK2/cyclin A2 (setting [2]), not below 100 nM.
As for `CNCCOc1ccc(Nc2ncc3cc([C@@H](C)O)nc(NC4CCC(OC)CC4)c3n2)nc1` (some centres unmarked) [Compound 592], the IC50 on CDK4/cyclin D3 (setting [1]) is less than 10 nM; at CDK2/cyclin A2 (setting [2]) it was not below 100 nM.
The matching figures for `CC(C)Nc1nc(C(C)O)cc2cnc(Nc3ccc(N4CCN(CCO)CC4)cn3)nc12` (centres unmarked) [Compound 74]: less than 10 nM and not below 100 nM.
